Values quoted from earlier work, collected in patent publication US7129355B2, “Process for preparing kifunensine intermediate and kifunensine therefrom” (Industrial Research Limited, priority 2002, dated 2006).

Test system: plant mannosidase II
Details: Elbein et al., J. Biol. Chem. 265, 15599, 1990

activity toward plant mannosidase II: inactive
Compound: O=C1N[C@@H]2[C@@H](O)[C@@H](O)[C@H](O)[C@@H](CO)N2C1=O [Kifunensine]
